Assay [1] concerns PC-3. As to the kind of experiment: Cytotoxicity against human PC3 cells. Format: functional, cell-based.
For assay [2], the system named is HCT-116. Nature of the assay: Cytotoxicity against human HCT116 cells. Format: functional, cell-based.
Assay [3] deals with Caco-2. As to the kind of experiment: Cytotoxicity against human Caco2 cells. It is filed as functional, cell-based.
Assay [4] relates to MCF7. As to the kind of experiment: Cytotoxicity against human MCF7 cells. Format: functional, cell-based.
In assay [5] the test system is HeLa. As to the kind of experiment: Cytotoxicity against human HeLa cells. It is filed as functional, cell-based.
Assay [6] relates to SK-BR-3. As to the kind of experiment: Cytotoxicity against human SKBR3 cells. It is filed as functional, cell-based.
Assay [7] has as its system PANC-1. Nature of the assay: Cytotoxicity against human PANC1 cells. It is filed as functional.
The subject of assay [8] is MDA-MB-231. As to the kind of experiment: Cytotoxicity against human MDA-MB-231 cells. It is filed as functional.
For assay [9], the system named is SiHa. Nature of the assay: Cytotoxicity against human SiHa cells. Format: functional.
For assay [10], the system named is DU-145. As to the kind of experiment: Growth inhibition of human DU145 cells by microtiter plate assay. It is filed as functional.
Assay [11] has as its system MDA-MB-231. Nature of the assay: Growth inhibition of human MDA-MB-231 cells by microtiter plate assay. Format: functional.
Assay [12] has as its system MCF7. Nature of the assay: Growth inhibition of human MCF7 cells by microtiter plate assay. It is filed as functional.
For assay [13], the system named is HT-29. As to the kind of experiment: cells. Conditions: Homo sapiens, HT-29, 48 h.
Description: Antiproliferative activity against human HT-29 cells after 48 hrs by MTT assay
Assay [14] relates to PC-3. Nature of the assay: cells. Conditions: Homo sapiens, PC-3, 48 h.
Assay [15] deals with HeLa. Nature of the assay: Growth inhibition of human HeLa cells. Format: functional.
Assay [16] relates to HepG2. Nature of the assay: Growth inhibition of human HepG2 cells. It is filed as functional.
For assay [17], the system named is MCF7. Nature of the assay: Growth inhibition of human MCF7 cells. Format: functional.

≈ marks a conversion by molar mass, not a printed value.

Drawing on ChEMBL document CHEMBL4364264, “Tetrazole hybrids with potential anticancer activity” (Eur J Med Chem, 2019), this text covers IC50 and GI50 for 25 molecules.

Broadly, the IC50 is the concentration that inhibits the measured activity by half. The low end stands for greater potency in that assay, the high end for weaker potency in that assay. One may read the GI50 as the concentration at which growth is held to half of that of the control. Low readings indicate greater sensitivity of the cells, high ones lower sensitivity of the cells.

With `O=C(/C=C/c1ccccc1Oc1nnnn1-c1ccccc1)c1ccccc1`, the IC50 in assay [1] is 1.6 µg/mL (≈ 4.34 µM); in [2], 0.6 µg/mL (≈ 1.63 µM).
For `COc1ccccc1C1C(c2nnn[nH]2)=C(N)Oc2ccc3ccccc3c21` (stereo not drawn), the half-maximal inhibitory concentration (IC50) in assay [3], in assay [4], in assay [5] and in assay [6] was 15 to 87 µM in each case.
Regarding `CCn1cc(C(=O)O)c(=O)c2cnc(N3CCN(C(=O)CCSc4nnnn4-c4ccc(Br)cc4)CC3)nc21`, the 50% growth inhibitory concentration (GI50) in assay [7] is 0.07 µM; in assay [8] it was 0.22 µM; in assay [9] it was 0.08 µM.
Turning to `CCc1cc2c(cc1O)CC[C@@H]1[C@@H]2CC[C@]2(C)[C@@H](Cc3nnnn3C)CC[C@@H]12`, the GI50 in [10], in [11] and in assay [12] was 0.34 to 100 µM each time.
With `COc1ccc(C2C(c3nnn[nH]3)=C(N)Oc3ccc4ccccc4c32)cc1` (stereo not drawn), the IC50 in assay [3], in assay [4], in assay [5] and in assay [6] was 15 to 87 µM each time.
With `O=C(O)Cn1nnc(-c2cn(-c3ccccc3)nc2-c2ccccc2)n1`, the figures for the IC50 in assay [13] and in assay [14] were 86.3 µM and 70.2 µM, respectively.
With `COc1cc(-n2nnnc2SCCC(=O)N2CCN(c3cc4c(cc3F)c(=O)c(C(=O)O)cn4C3CC3)CC2)cc(OC)c1OC`, the 50% growth inhibitory concentration (GI50) in assay [7], in [8] and in assay [9] was 0.066 to 1.3 µM throughout.
Turning to `COc1cc(/C=C/C(=O)c2ccccc2OC)ccc1Oc1nnnn1-c1ccccc1`, the half-inhibitory concentration (IC50) in assay [1] and in assay [2] was 2.5 to 7 µg/mL (≈ 5.84 to 16.3 µM) in each case.
Regarding `COc1cc(/C=C/C(=O)c2ccc(Br)cc2)ccc1Oc1nnnn1-c1ccccc1`, the half-inhibitory concentration (IC50) in assay [1] and in assay [2] was 2.5 to 7 µg/mL (≈ 5.24 to 14.7 µM) throughout.
Regarding `O=C(O)c1cn(C2CC2)c2cc(N3CCN(C(=O)CCSc4nnnn4-c4ccc(F)c(F)c4F)CC3)c(F)cc2c1=O`, the GI50 in assay [7], in assay [8] and in assay [9] was 0.066 to 1.3 µM each time.
With `CN(C)C(=O)NC(c1ccc(Cl)cc1)n1cnnn1` (stereo not drawn), the 50% growth inhibitory concentration (GI50) in [15], in assay [16] and in assay [17] was 8.2 to 41 µM throughout.
In the case of `Cc1ccc(-c2nn(-c3ccccc3)cc2-c2nnn(CC(=O)O)n2)cc1`, the IC50 in assay [13] and in assay [14] was 7.23 to 48.3 µM each time.
Take `COc1ccc(C2C(c3nnn[nH]3)=C(N)Oc3ccc4ccccc4c32)c(OC)c1` (stereo not drawn): the IC50 in assay [3], in assay [4], in assay [5] and in [6] was 15 to 26 µM each time.
Consider `COc1cccc(C2C(c3nnn[nH]3)=C(N)Oc3ccc4ccccc4c32)c1OC` (stereo not drawn), for which the IC50 in assay [3], in assay [4], in assay [5] and in [6] was 15 to 87 µM throughout.
As for `NC(=S)NNC(c1ccc(Cl)cc1)n1cnnn1` (stereo not drawn), the GI50 in assay [15], in assay [16] and in assay [17] was 5.2 to 29.8 µM in each case.
Regarding `CCn1cc(C(=O)O)c(=O)c2cnc(N3CCN(C(=O)CCSc4nnnn4-c4ccc(F)c(F)c4F)CC3)nc21`, the concentration for 50% growth inhibition (GI50) in assay [7], in [8] and in assay [9] was 0.066 to 1.3 µM throughout.
With `O=C(O)c1cn(C2CC2)c2cc(N3CCN(C(=O)CCSc4nnnn4Cc4ccccc4)CC3)c(F)cc2c1=O`, the concentration for 50% growth inhibition (GI50) in [7], in assay [8] and in [9] was 0.085 to 1.15 µM throughout.
In the case of `NC(=S)NNC(c1ccccc1)n1cnnn1` (stereo not drawn), the 50% growth inhibitory concentration (GI50) in assay [15], in assay [16] and in assay [17] was 5.2 to 8.1 µM each time.
Take `COc1ccccc1-c1nn(-c2ccccc2)cc1-c1nnn(CC(=O)O)n1`: the IC50 in assay [13] and in assay [14] was 7.23 to 48.3 µM throughout.
As to `O=C(O)c1cn(C2CC2)c2cc(N3CCN(C(=O)CCSc4nnnn4-c4ccc(C(F)(F)F)cc4)CC3)c(F)cc2c1=O`, the concentration for 50% growth inhibition (GI50) in assay [7], in assay [8] and in [9] was 0.066 to 1.3 µM in each case.
Consider `COc1cc(/C=C/C(=O)c2cccs2)ccc1Oc1nnnn1-c1ccccc1`, for which the concentration for half-maximal inhibition (IC50) in assay [1] amounted to 5 µg/mL (≈ 12.4 µM); in [4], 2.9 µg/mL; in assay [2], 2.5 µg/mL (≈ 6.18 µM).
As for `COc1cc(/C=C/C(=O)c2ccco2)ccc1Oc1nnnn1-c1ccccc1`, the IC50 in assay [1] and in [2] was 2.5 to 7 µg/mL (≈ 6.44 to 18 µM) throughout.
As for `O=C(O)c1cn(C2CC2)c2cc(N3CCN(C(=O)CCSc4nnnn4-c4ccccc4)CC3)c(F)cc2c1=O`, the GI50 in [7], in assay [8] and in [9] was 0.085 to 1.15 µM each time.
For `CCn1cc(C(=O)O)c(=O)c2cnc(N3CCN(C(=O)CCSc4nnnn4-c4ccc(OC)c(OC)c4OC)CC3)nc21`, the GI50 in assay [7], in assay [8] and in assay [9] was 0.066 to 1.3 µM throughout.
For `NC1=C(c2nnn[nH]2)C(c2cccc(O)c2)c2c(ccc3ccccc23)O1` (stereo not drawn), the IC50 in assay [3], in assay [4], in [5] and in assay [6] was 15 to 87 µM in each case.
